Results on 9 molecules are retold here after patent publication US5776948A, “Fluoroquinoline derivative” (Chugai Seiyaku Kabushiki Kaisha, priority 1992, dated 1998).

One may read the IC50 as the concentration that gives 50% inhibition. As a reminder, the MIC is the lowest concentration that inhibits growth of the organism.

Data set [1] deals with mouse lymphatic leukemia cell line L1210. Kind of data set: Cytotoxicity test (MTT method). Format: cell-based. As for the experimental part: The 50% inhibitory concentrations (IC50) of the test compounds on a mouse lymphatic leukemia cell line L1210 were determined by the MTT [3-(4,5-dimethylthiazol-2-yl)-2,5-diphenyltetrazolium bromide] method.
Namely, 2×10^4 L1210 cells were incubated in 200 μl of a culture medium (RPMI-1640 medium containing 10% of fetal bovine serum) containing a two-fold serial dilution of a test compound at 37° C. for a day. Four hours before the completion of the incubation, 10 μl of a 5 mg/ml solution of MTT was added. When the incubation was completed, the culture medium was eliminated by sucking and the insoluble formazan, which had been reduced by the mitochondrial dehydrogenase of the cells, was extracted with 100 μl of dimethylsulfoxide. Then the absorbance was measured at 550 nm. The cell propagation ratio was expressed in the ratio of the formazan formation of the test lot to that of the control lot wherein cells were incubated in a medium free from any test compound. Then IC50 was determined by the probit method.
(Tetrazolium dyes change colour on reduction, which living cells bring about.)

For data set [2], the system named is P. mirabilis IFO 13300. Kind of data set: Antibacterial activity test, MIC by agar plate dilution method. Format: cell-based. As to conditions: unit assumed. The procedure:
(§1) The minimum inhibitory concentrations (MIC) of the test compounds were measured by the publicly known agar plate dilution method.

The subject of data set [3] is K. pneumoniae B-54. The description is as above. As to conditions: unit assumed. Format: cell-based. The procedure: as §1
In data set [4] the test system is A. calcoaceticus IFO 12552. The data set is described as above. Format: cell-based. As to conditions: unit assumed. The procedure: as §1
Data set [5] has as its system CSJ 1922. The description is as above. In kind it is cell-based. The settings on record: CSJ 1922 (listed under E. coli); unit assumed. As for the experimental part:
as §1

Data set [6] deals with P. vulgaris IFO 3851. The description is as above. The settings on record: unit assumed. Format: cell-based. The procedure: as §1
Data set [7] relates to S. typhimurium LT-2. Described as above. In kind it is cell-based. The settings on record: unit assumed. As for the experimental part:
as §1

For data set [8], the system named is S. epidermidis IFO 12993. Described as above. Format: cell-based. As to conditions: unit assumed. The procedure:
as §1

For data set [9], the system named is A. faecalis IFO 13111. The description is as above. In kind it is cell-based. The settings on record: unit assumed. The procedure: as §1
The test system of data set [10] is M. morganii IFO 3848. The description is as above. In kind it is cell-based. As to conditions: unit assumed. The procedure: as §1
The subject of data set [11] is E. cloacae IFO 3320. The description is as above. Format: cell-based. As to conditions: unit assumed. As for the experimental part:
as §1

Data set [12] has as its system P. rettgeri IFO 13501. The data set is described as above. In kind it is cell-based. The settings on record: unit assumed. The procedure: as §1
Data set [13] deals with B. cereus IFO 13494. The data set is described as above. Format: cell-based. As to conditions: unit assumed. As for the experimental part:
as §1

Data set [14] deals with E. aeruginosa IFO 13534. The data set is described as above. Format: cell-based. The settings on record: unit assumed. As for the experimental part:
as §1

Data set [15] deals with B. subtilis ATCC 6633. The description is as above. Format: cell-based. As to conditions: unit assumed. As for the experimental part: as §1
In data set [16] the test system is S. aureus 209P. The description is as above. In kind it is cell-based. As to conditions: unit assumed. As for the experimental part:
as §1

Data set [17] has as its system JU-5. Described as above. As to conditions: JU-5 (listed under S. aureus); unit assumed. Format: cell-based. The procedure:
as §1

Data set [18] has as its system C. freundii IFO 12681. Described as above. In kind it is cell-based. The settings on record: unit assumed. The procedure:
as §1

Data set [19] concerns E. coli NIHJ JC-2. Described as above. In kind it is cell-based. As to conditions: unit assumed. As for the experimental part: as §1
The subject of data set [20] is TO-101. The description is as above. In kind it is cell-based. The settings on record: TO-101 (listed under S. marcescens); unit assumed. As for the experimental part:
as §1

Data set [21] has as its system S. marcescens IFO 12648. The description is as above. Format: cell-based. As to conditions: unit assumed. The procedure: as §1
Data set [22] has as its system MRSA RN-10. The data set is described as above. In kind it is cell-based. The settings on record: unit assumed. As for the experimental part:
as §1

In data set [23] the test system is X. maltophilia IFO 14161. The description is as above. As to conditions: unit assumed. Format: cell-based. The procedure:
as §1

Data set [24] relates to P. aeruginosa GNB-139. The data set is described as above. In kind it is cell-based. The settings on record: unit assumed. As for the experimental part: as §1
A short description of data set [25]: Phototoxicity test (UVA irradiation, MTT method). Format: cell-based. The arrangement: dose or concentration left out as unconfirmed. As to conditions: mouse, l1210 cells; L1210, UVA 0.5 J, 2 days incubation; read-out: Phototoxicity (%; propagation ratio under 0.5 J-irradiation to non-irradiation lot). As for the experimental part:
The phototoxicity was determined by enhancing the cytotoxicity of a test compound on L1210 via UV irradiation. […] After the irradiation, 100 μl of a culture medium was added and the cells were incubated at 37° C. for 2 days.

For data set [26] the following is noted: background art; cited from earlier work.
The mark [27] stands for this setting: L1210 cells, 37° C., a day, MTT, read-out: IC50.

The structures appear in SMILES notation. In brackets after ≈: the same amount, converted by molar mass. Where two headings read alike, the source gives them in different places.

For the molecule `O=C(O)c1cn(C2CC2)c2cc(N3CCNCC3)c(F)cc2c1=O` [Ciprofloxacin, reference compound], the IC50 in [1] (setting [27]) stood at 77 µg/mL (≈ 232 µM).

As to `COc1c(C2(N)CCCC2)c(F)cc2c(=O)c(C(=O)O)cn(C3CC3)c12.Cl` [Ex. 16, 7-(1-aminocyclopentyl)-1-cyclopropyl-6-fluoro-8-methoxy-1,4-dihydro-4-oxo-3-quinolinecarboxylic acid hydrochloride], the MIC in data set [2] was 0.2 µg/mL; in data set [3], 0.2 µg/mL; in [4] it was 0.78 µg/mL; in [5] it was 0.2 µg/mL; in data set [6], 0.2 µg/mL; in [7], 0.39 µg/mL. Also, the MIC was found to be 3.13 µg/mL in data set [8]; 1.56 µg/mL in data set [9]; 0.2 µg/mL in data set [10]; 0.1 µg/mL in data set [11]; 0.2 µg/mL in [12]; 0.78 µg/mL in data set [13]. In addition, the MIC was 0.39 µg/mL in [14]; 0.1 µg/mL in data set [15]; 1.56 µg/mL in data set [16]; 0.39 µg/mL in data set [17]; 0.2 µg/mL in data set [18]; 0.39 µg/mL in data set [19]. In addition, the MIC in [20] came out at 0.39 µg/mL; in data set [21], 0.39 µg/mL; in data set [22] it was 1.56 µg/mL; in data set [23] it was 0.78 µg/mL; in data set [24], 3.13 µg/mL. Also, the IC50 in data set [1] (setting [27]) stood at 399 µg/mL.

Turning to `COc1c(C2(N)CCCCC2)c(F)cc2c(=O)c(C(=O)O)cn(C3CC3)c12.Cl` [Ex. 17, 7-(1-aminocyclohexyl)-1-cyclopropyl-6-fluoro-8-methoxy-1,4-dihydro-4-oxo-3-quinolinecarboxylic acid hydrochloride], the IC50 in data set [1] (L1210) is 399 µg/mL.

Consider `COc1c(C2(N)CCOCC2)c(F)cc2c(=O)c(C(=O)O)cn(C3CC3)c12.Cl` [Ex. 18, 7-(4-amino-2,3,5,6-tetrahydropyran-4-yl)-1-cyclopropyl-6-fluoro-8-methoxy-1,4-dihydro-4-oxo-3-quinolinecarboxylic acid hydrochloride], for which the IC50 in [1] (setting [27]) is more than 800 µg/mL.

Consider `COc1c(C2(N)CCC2)c(F)cc2c(=O)c(C(=O)O)cn(C3CC3)c12.Cl` [Ex. 23, 7-(1-aminocyclobutyl)-1-cyclopropyl-6-fluoro-8-methoxy-1,4-dihydro-4-oxo-3-quinolinecarboxylic acid hydrochloride], for which the MIC is 0.39 µg/mL in [2]; 0.2 µg/mL in data set [3]; 1.56 µg/mL in data set [4]; 0.2 µg/mL in data set [5]; 0.2 µg/mL in [6]; 0.39 µg/mL in data set [7]. The MIC turned out to be 1.56 µg/mL in data set [8]; 1.56 µg/mL in data set [9]; 0.1 µg/mL in [10]; 0.1 µg/mL in data set [11]; 0.39 µg/mL in [12]; 0.78 µg/mL in data set [13]. The MIC was determined as 0.39 µg/mL in [14]; 0.1 µg/mL in data set [15]; 0.78 µg/mL in data set [16]; 0.39 µg/mL in data set [17]; 0.2 µg/mL in [18]; 0.2 µg/mL in data set [19]. The MIC in data set [20] stood at 0.39 µg/mL; in data set [21], 0.78 µg/mL; in data set [22] it was 0.78 µg/mL; in [23], 0.78 µg/mL; in [24], 3.13 µg/mL.

For `COc1c(C2(N)CC2)c(F)cc2c(=O)c(C(=O)O)cn(C3CC3)c12.Cl` [Ex. 26, 7-(1-aminocyclopropyl)-1-cyclopropyl-6-fluoro-8-methoxy-1,4-dihydro-4-oxo-3-quinolinecarboxylic acid hydrochloride], the MIC was 0.05 µg/mL in data set [2]; 0.1 µg/mL in [3]; 0.78 µg/mL in data set [4]; 0.1 µg/mL in data set [5]; 0.1 µg/mL in data set [6]; 0.2 µg/mL in data set [7]. In addition, the MIC in data set [8] amounted to 0.78 µg/mL; in [9], 1.56 µg/mL; in data set [10] it was 0.05 µg/mL; in [11], 0.025 µg/mL; in [12] it was 0.2 µg/mL; in data set [13], 0.2 µg/mL. In addition, the MIC came to 0.2 µg/mL in data set [14]; 0.05 µg/mL in data set [15]; 0.39 µg/mL in [16]; 0.2 µg/mL in data set [17]; 0.1 µg/mL in data set [18]; 0.2 µg/mL in [19]. Also, the MIC came out at 0.2 µg/mL in data set [20]; 0.2 µg/mL in data set [21]; 0.39 µg/mL in data set [22]; 0.78 µg/mL in data set [23]; 0.78 µg/mL in data set [24]. For the same molecule, in [1] (setting [27]), the IC50 stood at 323 µg/mL. Also, in [25], the viability at 48 h is more than 100%.

Take `CC1COc2c(N3CCN(C)CC3)c(F)cc3c(=O)c(C(=O)O)cn1c23` (stereo not shown) [Ofloxacin, reference compound]: the IC50 in data set [1] (setting [27]) stood at 195 µg/mL (≈ 540 µM). Moreover, the viability at 48 h in data set [25] stood at 69%.

With `CCn1cc(C(=O)O)c(=O)c2cc(F)c(N3CCNCC3)nc21` [enoxacin], in data set [26], the “solubility under physiological conditions” value was “poor solubility”.

`CCn1cc(C(=O)O)c(=O)c2cc(F)c(N3CCNCC3)cc21` [norfloxacin]: the “solubility under physiological conditions” value in [26] was “poor solubility”.
